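Tested at 5 concentrations; 48 h exposure; 96-well plates; endpoints linearly interpolated, else capped at highest concentration. At the GI50, growth is halved.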 The source made the active and inactive calls. No stated cut-off is given here; in the data, active = GI50 up to about 1.1 µM and inactive = higher.
Tests used:
Experiment in all cases: growth of human tumour cells (NCI), 48 h
SK-MEL-5 = system: SK-MEL-5
U-251 = system: U-251
SW-620 = system: SW-620
UACC-257 = system: UACC-257
HL-60 = system: HL-60
SF-268 = system: SF-268
SF-295 = system: SF-295
Malme-3M = system: Malme-3M
NCI-H522 = system: NCI-H522
HCT-15 = system: HCT-15
HOP-62 = system: HOP-62
HT-29 = system: HT-29
TK-10 = system: TK-10
OVCAR-8 = system: OVCAR-8
ACHN = system: ACHN
CCRF-CEM = system: CCRF-CEM
CAKI-1 = system: CAKI-1
SK-MEL-2 = system: SK-MEL-2

| SMILES | GI50 (SK-MEL-5) | GI50 (U-251) | GI50 (SW-620) | GI50 (UACC-257) | GI50 (HL-60) | GI50 (SF-268) | GI50 (SF-295) | GI50 (Malme-3M) | GI50 (NCI-H522) | GI50 (HCT-15) [µM] | GI50 (HOP-62) | GI50 (HT-29) | GI50 (TK-10) | GI50 (OVCAR-8) | GI50 (ACHN) | GI50 (CCRF-CEM) | GI50 (CAKI-1) | GI50 (SK-MEL-2) |
| --- | --- | --- | --- | --- | --- | --- | --- | --- | --- | --- | --- | --- | --- | --- | --- | --- | --- | --- |
| CCOC(C[C@H](O[Si](C)(C)C(C)(C)C)[C@H]1COC(=S)S1)OCC | 48.1 µM (inactive) | 40.7 µM (inactive) | 62.7 µM (inactive) | 35 µM (inactive) | 29 µM (inactive) | > 100 µM (inactive) | 37.7 µM (inactive) | > 100 µM (inactive) | 23.3 µM (inactive) | 55.1 | 43.6 µM (inactive) | 14.5 µM (inactive) | > 100 µM (inactive) | 66.5 µM (inactive) | 48.5 µM (inactive) | 34.9 µM (inactive) |  |  |
| NCCCCNc1ccc2c(=O)[nH][nH]c(=O)c2c1 | > 100 µM (inactive) | > 100 µM (inactive) | > 100 µM (inactive) | > 100 µM (inactive) | > 100 µM (inactive) | > 100 µM (inactive) | > 100 µM (inactive) | > 100 µM (inactive) | > 100 µM (inactive) |  | > 100 µM (inactive) | > 100 µM (inactive) | > 100 µM (inactive) | > 100 µM (inactive) | > 100 µM (inactive) | > 100 µM (inactive) | > 100 µM (inactive) | > 100 µM (inactive) |
| CCN(CC)c1oc(N(CC)CC)c(C(=O)Nc2ccccn2)c(=O)c1C(C)=O | > 100 µM (inactive) | > 100 µM (inactive) | > 100 µM (inactive) |  |  | 90.8 µM (inactive) |  | > 100 µM (inactive) | > 100 µM (inactive) | > 100 | > 100 µM (inactive) | > 100 µM (inactive) | > 100 µM (inactive) | > 100 µM (inactive) | > 100 µM (inactive) | > 100 µM (inactive) | > 100 µM (inactive) | > 100 µM (inactive) |
| NC(=S)N1N=C2c3ccccc3CC[C@H]2[C@@H]1c1cccs1 |  | 35.3 µM (inactive) | 38.7 µM (inactive) | 28 µM (inactive) | 16.1 µM (inactive) | 40.6 µM (inactive) | 15.8 µM (inactive) | 19.2 µM (inactive) | 16.8 µM (inactive) | 21.3 | 33.3 µM (inactive) | 24.1 µM (inactive) | 64.6 µM (inactive) | 32.7 µM (inactive) | 49.2 µM (inactive) | 18.8 µM (inactive) |  | 22.1 µM (inactive) |
| COc1ccc2nc(NC(=O)C(=O)C(C#N)c3ccc([N+](=O)[O-])cc3)sc2c1 (configuration not stated) | > 100 µM (inactive) | > 100 µM (inactive) | > 100 µM (inactive) | > 100 µM (inactive) |  | > 100 µM (inactive) | > 100 µM (inactive) | > 100 µM (inactive) | 55.5 µM (inactive) | > 100 | > 100 µM (inactive) | > 100 µM (inactive) | > 100 µM (inactive) | > 100 µM (inactive) | > 100 µM (inactive) |  | > 100 µM (inactive) | > 100 µM (inactive) |
| CC(=O)c1ccccc1NC(=O)C(=O)C(C(=O)c1ccc2ccccc2c1)C1OC(=O)c2ccccc21 (configuration not stated) | 11.4 µM (inactive) | 6.75 µM (inactive) | 7.83 µM (inactive) | 13.8 µM (inactive) | 9.91 µM (inactive) | 9.27 µM (inactive) |  | 3.7 µM (inactive) | 10.7 µM (inactive) | 13.7 | 10.7 µM (inactive) | 34.8 µM (inactive) | 34 µM (inactive) | 11.6 µM (inactive) | 31.8 µM (inactive) | 4.42 µM (inactive) | 10.6 µM (inactive) | 10.2 µM (inactive) |
| CCc1nc(N)nc(C(=O)NCCNC(=O)c2nc(N)nc(CC)c2C)c1C | > 100 µM (inactive) | > 100 µM (inactive) | > 100 µM (inactive) | > 100 µM (inactive) | > 100 µM (inactive) | > 100 µM (inactive) | > 100 µM (inactive) | > 100 µM (inactive) |  | > 100 | > 100 µM (inactive) | > 100 µM (inactive) | > 100 µM (inactive) | > 100 µM (inactive) | > 100 µM (inactive) |  | > 100 µM (inactive) | > 100 µM (inactive) |
| COc1cc(OC)c(/C=C2\N=C(C)N(Nc3nnc(NN4C(=O)/C(=C/c5c(OC)cc(OC)cc5OC)N=C4C)c4ccccc34)C2=O)c(OC)c1 | > 100 µM (inactive) | > 100 µM (inactive) | > 100 µM (inactive) | > 100 µM (inactive) | > 100 µM (inactive) | > 100 µM (inactive) | 93.3 µM (inactive) |  | > 100 µM (inactive) | > 100 | > 100 µM (inactive) | > 100 µM (inactive) |  | > 100 µM (inactive) | > 100 µM (inactive) | > 100 µM (inactive) |  |  |
| Cc1c2cc[n+](C)cc2c(C)c2c1[nH]c1ccc(Oc3ccccc3)cc12 | 1.01 µM (active) | 0.236 µM (active) | 0.537 µM (active) | 1.28 µM (inactive) |  | 1.03 µM (active) | 0.294 µM (active) | 1.71 µM (inactive) |  | 4.69 | 0.518 µM (active) | 0.843 µM (active) |  | 0.605 µM (active) | 2.48 µM (inactive) | 1.38 µM (inactive) | 2.12 µM (inactive) | 0.832 µM (active) |

From ChEMBL document CHEMBL1201862, “PubChem BioAssay data set” (2004)
